From PubChem BioAssay (NCI)
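Following 48 hours of exposure in 96-well plates, responses at five concentrations were used to interpolate endpoints linearly. TGI marks complete inhibition of growth.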

Assays:
Assay in all cases: NCI tumour cell line growth inhibition, 48 h
[1] = tested on: A498 renal
[2] = tested on: A549 NSCLC
[3] = tested on: CCRF-CEM leukemia
[4] = tested on: DMS 273 small cell lung
[5] = tested on: EKVX NSCLC
[6] = tested on: HCT-116 colon
[7] = tested on: HL-60(TB) leukemia
[8] = tested on: HOP-62 NSCLC
[9] = tested on: HOP-92 NSCLC
[10] = tested on: HT29 colon
[11] = tested on: IGROV1 ovarian
[12] = tested on: KM12 colon
[13] = tested on: M14 melanoma
[14] = tested on: M19-MEL melanoma
[15] = tested on: MOLT-4 leukemia
[16] = tested on: NCI-H226 lung
[17] = tested on: NCI-H460 lung
[18] = tested on: NCI-H522 lung
[19] = tested on: OVCAR-5 ovarian
[20] = tested on: OVCAR-8 ovarian
[21] = tested on: RXF 393 renal
[22] = tested on: SF-268 CNS
[23] = tested on: SF-295 CNS
[24] = tested on: SK-MEL-28 melanoma
[25] = tested on: SK-OV-3 ovarian
[26] = tested on: SNB-19 CNS
[27] = tested on: SNB-78 CNS
[28] = tested on: SR leukemia
[29] = tested on: TK-10 renal
[30] = tested on: U251 CNS
[31] = tested on: UACC-257 melanoma
[32] = tested on: UACC-62 melanoma
[33] = tested on: UO-31 renal
[34] = tested on: ACHN renal
[35] = tested on: CAKI-1 renal
[36] = tested on: DLD-1 colon
[37] = tested on: DMS 114 small cell lung
[38] = tested on: HCC-2998 colon
[39] = tested on: HCT-15 colon
[40] = tested on: HOP-18 NSCLC
[41] = tested on: K-562 leukemia
[42] = tested on: KM20L2 colon
[43] = tested on: LOX IMVI melanoma
[44] = tested on: LXFL 529 NSCLC
[45] = tested on: MALME-3M melanoma
[46] = tested on: NCI-H23 lung
[47] = tested on: OVCAR-3 ovarian
[48] = tested on: OVCAR-4 ovarian
[49] = tested on: RPMI-8226 leukemia
[50] = tested on: SF-539 CNS
[51] = tested on: SK-MEL-2 melanoma
[52] = tested on: SK-MEL-5 melanoma
[53] = tested on: SN12C renal
[54] = tested on: SNB-75 CNS
[55] = tested on: SW-620 colon
[56] = tested on: 786-0 renal

In the case of CCSc1c2ccccc2nc2c(OC)ccc(OC)c12, the TGI [1] is reported as 81.7 µM, the TGI [2] is reported as greater than 100 µM and the TGI [3] is reported as greater than 100 µM. The TGI [4] was 47.9 µM, the TGI [5] was greater than 100 µM and the TGI [6] was 37.9 µM. It also gave a TGI [7] of 52.9 µM, a TGI [8] of 97.2 µM and a TGI [9] of 56.5 µM. The TGI [10] was 63.4 µM, the TGI [11] was 63.4 µM and the TGI [12] was 63.5 µM. The TGI [13] was 95.8 µM, the TGI [14] was 37.1 µM and the TGI [15] was 73 µM. It also gave a TGI [16] of 55.7 µM, a TGI [17] of 41.7 µM and a TGI [18] greater than 100 µM. It also gave a TGI [19] of 97.1 µM, a TGI [20] of 44.9 µM and a TGI [21] of 33.2 µM. It also gave a TGI [22] of 55.6 µM, a TGI [23] of 66.2 µM and a TGI [24] of 40 µM. For the same molecule, the TGI [25] was 63.2 µM, the TGI [26] was 72.4 µM and the TGI [27] was 56.7 µM. For the same molecule, the TGI [28] was 62.5 µM, the TGI [29] was 85 µM and the TGI [30] was 44.9 µM. For the same molecule, the TGI [31] was 42.8 µM, the TGI [32] was 37.9 µM and the TGI [33] was 59.8 µM.
With CN1Cc2ccccc2C2(COc3ccccc3C2=O)C1 (configuration not stated) the TGI [2] was greater than 100 µM, the TGI [34] was greater than 100 µM and the TGI [35] was greater than 100 µM. It also gave a TGI [3] greater than 100 µM, a TGI [36] greater than 100 µM and a TGI [37] greater than 100 µM. It also gave a TGI [4] greater than 100 µM, a TGI [5] greater than 100 µM and a TGI [38] greater than 100 µM. It also gave a TGI [6] greater than 100 µM, a TGI [39] greater than 100 µM and a TGI [7] greater than 100 µM. The TGI [40] was greater than 100 µM, the TGI [8] was greater than 100 µM and the TGI [9] was 93.6 µM. The TGI [10] was greater than 100 µM, the TGI [11] was greater than 100 µM and the TGI [41] was greater than 100 µM. The TGI [42] was greater than 100 µM, the TGI [43] was greater than 100 µM and the TGI [44] was greater than 100 µM. It also gave a TGI [13] greater than 100 µM, a TGI [14] greater than 100 µM and a TGI [45] greater than 100 µM. The TGI [15] was greater than 100 µM, the TGI [16] was greater than 100 µM and the TGI [46] was greater than 100 µM. It also gave a TGI [17] greater than 100 µM, a TGI [18] greater than 100 µM and a TGI [47] greater than 100 µM. For the same molecule, the TGI [48] was greater than 100 µM, the TGI [19] was greater than 100 µM and the TGI [20] was greater than 100 µM. For the same molecule, the TGI [49] was greater than 100 µM, the TGI [21] was greater than 100 µM and the TGI [22] was greater than 100 µM. The TGI [23] was greater than 100 µM, the TGI [50] was greater than 100 µM and the TGI [51] was greater than 100 µM. The TGI [52] was greater than 100 µM, the TGI [25] was greater than 100 µM and the TGI [53] was greater than 100 µM. It also gave a TGI [26] greater than 100 µM, a TGI [54] greater than 100 µM and a TGI [27] greater than 100 µM. For the same molecule, the TGI [28] was 87.8 µM, the TGI [55] was greater than 100 µM and the TGI [29] was greater than 100 µM. The TGI [30] was greater than 100 µM, the TGI [31] was greater than 100 µM and the TGI [32] was greater than 100 µM. The TGI [33] was greater than 100 µM.
With NCCOCCOCC(=O)O the TGI [56] was greater than 100 µM, the TGI [2] was greater than 100 µM and the TGI [34] was greater than 100 µM. For the same molecule, the TGI [35] was greater than 100 µM, the TGI [37] was greater than 100 µM and the TGI [4] was greater than 100 µM. For the same molecule, the TGI [5] was greater than 100 µM, the TGI [38] was greater than 100 µM and the TGI [6] was greater than 100 µM. It also gave a TGI [39] greater than 100 µM, a TGI [9] greater than 100 µM and a TGI [10] greater than 100 µM. The TGI [11] was greater than 100 µM, the TGI [41] was greater than 100 µM and the TGI [12] was greater than 100 µM. It also gave a TGI [42] greater than 100 µM, a TGI [44] greater than 100 µM and a TGI [14] greater than 100 µM. The TGI [45] was greater than 100 µM, the TGI [15] was greater than 100 µM and the TGI [16] was greater than 100 µM. The TGI [46] was greater than 100 µM, the TGI [18] was greater than 100 µM and the TGI [47] was greater than 100 µM. For the same molecule, the TGI [48] was greater than 100 µM, the TGI [19] was greater than 100 µM and the TGI [20] was greater than 100 µM. It also gave a TGI [49] greater than 100 µM, a TGI [21] greater than 100 µM and a TGI [22] greater than 100 µM. The TGI [23] was greater than 100 µM, the TGI [50] was greater than 100 µM and the TGI [51] was greater than 100 µM. The TGI [24] was greater than 100 µM, the TGI [52] was greater than 100 µM and the TGI [25] was greater than 100 µM. For the same molecule, the TGI [53] was greater than 100 µM, the TGI [26] was greater than 100 µM and the TGI [54] was greater than 100 µM. For the same molecule, the TGI [27] was greater than 100 µM, the TGI [28] was greater than 100 µM and the TGI [55] was greater than 100 µM. The TGI [29] was greater than 100 µM, the TGI [30] was greater than 100 µM and the TGI [31] was greater than 100 µM. For the same molecule, the TGI [32] was greater than 100 µM and the TGI [33] was greater than 100 µM.
